Data on five compounds can be found in patent US20250135026A1, “Antibody Drug Conjugates” (BeiGene Switzerland GmbH, priority 2021, published 2025).

Like-named read-outs stand apart in the source and are kept apart here.

One assay relates to A375. Put plainly: Compounds cellular killing (Cell Titer-Glo, 6 days, 2D). As to conditions: for cell-killing activity compared with Dxd: A375. It is filed as cell-based, human. The procedure:
(§1) The cell line was grown in a humidified 5% CO2 atmosphere at 37° C., and was regularly tested for the presence of mycoplasma with MycoAlert™ PLUS Mycoplasma Detection Kit (Lonza, LT07-710).
(§2) Incubation at 37° C., 5% CO2, overnight.
(§3) Adding the fresh growth-medium containing the varying concentrations of compounds, 50 ul/well.
(§4) Incubation at 37° C., 5% CO2, 6 days.
(§5) The cell viability detected by Cell Titer-Glo (Promega, G7573). Add 70 µL/well of CellTiter-Glo® Reagent in each well.
(§6) Allow the plates to incubate at room temperature for 10 minutes to stabilize luminescent signal.
(§7) Analyze with Microplate Reader.
(In ATP-based viability assays light output follows the ATP content of the culture.)

A further assay has as its system Calu-6. The description is as above. Format: cell-based. As to conditions: for cell-killing activity compared with Dxd: Calu-6. The procedure:
as §1, §2, §3, §4, §5, §6, §7

The next assay relates to HCC1569. Put plainly: Payload cellular killing, 2D. It is filed as cell-based. As to conditions: HCC1569, 2D (HER3 +++).
A further assay relates to MDA-MB-453. Put plainly: Payload cellular killing, 2D. It is filed as cell-based, human. As to conditions: MDA-MB-453, 2D (HER3 +++). The procedure: as §1
[1] abbreviates: Table 28, payload, A375, 2D (Her3 ++).
The mark [2] stands for this setting: Table 29, payload, A375, 6d, 2D (Her3++).
Where [3] appears, read: Table 28, payload, Calu-6, 2D (HER3 neg.).
Where [4] appears, read: Table 29, payload, Clau6, 6d, 2D (Her3 neg).
The mark [5] stands for this setting: Homo sapiens, Table 28, payload.
Setting [6] is: Homo sapiens, Table 28, payload, read-out: Emax.

Consider `CC[C@@]1(O)C(=O)OCc2c1cc1n(c2=O)Cc2c-1nc1cc(F)c(C)c3c1c2[C@@H](NC(=O)C(C)(F)CO)CC3` (single isomer, unassigned) [Example 68], for which the “cell-killing activity compared with Dxd” value in the assay with A375 and in the assay with Calu-6 was “less potent than Dxd” each time. The Emax came to 99.9% in the assay with A375 (Homo sapiens, A-375, Table 21, A375, read-out: Emax) and 98.5% in the assay on Calu-6 (Homo sapiens, Calu-6, Table 21, Calu-6, read-out: Emax). Also, the EC50 in the assay on A375 (Table 21, A375) is 4.5 nM; in the assay on Calu-6 (Table 21, Calu-6), 1.8 nM.
In the case of `CC[C@@]1(O)C(=O)OCc2c1cc1n(c2=O)Cc2c-1nc1cc(F)c(C)c3c1c2[C@@H](NC(=O)C(C)(F)CO)CC3` (single isomer, unassigned) [Example 69], the “cell-killing activity compared with Dxd” value in the assay with A375 and in the assay on Calu-6 was “stronger cell-killing activity than Dxd” each time. In addition, the EC50 worked out at 1.5 nM in the assay on A375 (Table 21, A375) and 0.6 nM in the assay with Calu-6 (Table 21, Calu-6). For the same compound, the Emax was 99.9% in the assay on A375 (Table 21, A375) and 98.2% in the assay on Calu-6 (Table 21, Calu-6).
Take `CC[C@@]1(O)C(=O)OCc2c1cc1n(c2=O)Cc2c-1nc1cc(F)c(C)c3c1c2[C@@H](NC(=O)C(C)(F)CO)CC3` (single isomer, unassigned) [Isomer 1 of Compounds 68 & 69]: the Emax in the assay on A375 (Homo sapiens, A-375, Table 29, payload, A375, 6d, 2D (Her3++), read-out: Emax) was 99.9%; in the assay on Calu-6 (Homo sapiens, Calu-6, Table 28, payload, Calu-6, 2D (HER3 neg.), read-out: Emax), 98.5%; in the assay with Calu-6 (Homo sapiens, Calu-6, […], Table 29, payload, Clau6, 6d, 2D (Her3 neg), read-out: Emax) it was 98.5%; in the assay on HCC1569 (Homo sapiens, HCC1569, Table 28, payload, read-out: Emax), 92%; with MDA-MB-453 (Homo sapiens, MDA-MB-453, Table 28, payload, read-out: Emax), 97.9%. Further, the EC50 with A375 (setting [1]) turned out to be 4.5 nM; in the assay on A375 (setting [2]), 4.5 nM; in the assay with Calu-6 (setting [3]), 1.8 nM; in the assay on Calu-6 (setting [4]), 1.8 nM; in the assay on HCC1569 (Table 28, payload), 3.2 nM; in the assay with MDA-MB-453 (Homo sapiens, MDA-MB-453, Table 28, payload) it was 2.8 nM.
Consider `CC[C@@]1(O)C(=O)OCc2c1cc1n(c2=O)Cc2c-1nc1cc(F)c(C)c3c1c2[C@@H](NC(=O)C(C)(F)CO)CC3` (single isomer, unassigned) [Isomer 2 of Compounds 68 & 69], for which the EC50 came out at 1.5 nM with A375 (setting [1]); 1.5 nM in the assay on A375 (setting [2]); 0.6 nM in the assay on Calu-6 (setting [3]); 0.6 nM in the assay with Calu-6 (setting [4]); 0.7 nM with HCC1569 (Table 28, payload); 1.5 nM in the assay with MDA-MB-453 (Table 28, payload). Besides, the Emax in the assay with A375 (setting [1]) was determined as 99.9%; in the assay on A375 (setting [2]), 99.9%; in the assay on Calu-6 (setting [3]) it was 98.2%; in the assay on Calu-6 (setting [4]), 98.2%; in the assay with HCC1569 (Table 28, payload), 91.6%; in the assay with MDA-MB-453 (Table 28, payload) it was 98.6%.
For the compound `CCc1c2c(nc3ccc(O)cc13)-c1cc3c(c(=O)n1C2)COC(=O)[C@]3(O)CC` [SN-38, reference compound], the EC50 with A375 (Homo sapiens, A-375, Table 28, payload, A375, 2D (Her3 ++)) was found to be 3.4 nM; in the assay with Calu-6 (Homo sapiens, Calu-6, Table 28, payload, Calu-6, 2D (HER3 neg.)) it was 2.9 nM; with HCC1569 (setting [5]), 5 nM; in the assay with MDA-MB-453 (setting [5]) it was 2.4 nM. Also, the Emax in the assay on A375 (Homo sapiens, A-375, Table 28, payload, A375, 2D (Her3 ++), read-out: Emax) turned out to be 99.9%; in the assay on Calu-6 (Homo sapiens, Table 28, payload, Calu-6, 2D (HER3 neg.), read-out: Emax), 99.5%; in the assay on HCC1569 (setting [6]) it was 95%; with MDA-MB-453 (setting [6]), 98.6%.

A word on the Emax: it is the size of the effect at its maximum, as opposed to the concentration needed. Broadly, the EC50 is the concentration needed to bring the measured effect to its halfway point. Read a low EC50 as an effect from little substance.
